Test results as given in patent US20100028889A1, “COMPANION DIAGNOSTIC ASSAYS FOR CANCER THERAPY” (ABBOTT LABORATORIES, priority 2006, published 2010).
Read-outs that look alike come from different tables or passages of the source.

Key:
CCRF-HSB2 = experiment: cell cytotoxicity EC50, CellTiter Glo, leukemia/lymphoma cell line; assay type: cell-based, human
Procedure: (§1) The SCLC and leukemia/lymphoma cell lines listed below were obtained from the American Type Culture Collection (Manassas, Va.), Deutsche Sammlung von Mikroorganismen und Zellkulturen (DSMZ, Braunsweig, Germany), or were the generous gift from Dr. Louis Staudt (National Cancer Institute) and were cultured as described in Tse, C., Shoemaker, A. R., Adickes, J., et al., “ABT-263: a potent and orally bioavailable Bcl-2 family inhibitor,” Cancer Res 2008; 68: 3421-3428; and Tahir, S. K., Yang, X., Anderson, M. G., et al., “Influence of Bcl-2 family members on the cellular response of small-cell lung cancer cell lines to ABT-737,” Cancer Res 2007; 67: 1176-1183.
(§2) Cells were treated at 10,000 or 50,000 cells per well for adherent or suspension cells, respectively, in 96-well microtiter plates in the presence of 10% human serum for 48 hours with or without ABT-263, in a humidified chamber with 5% CO2. ABT-263 was synthesized as previously described in Tse, C., Shoemaker, A. R., Adickes, J., et al., “ABT-263: a potent and orally bioavailable Bcl-2 family inhibitor,” Cancer Res 2008; 68: 3421-3428; and Oltersdorf, T., Elmore, S. W., Shoemaker, A. R., et al., “An inhibitor of Bcl-2 family proteins induces regression of solid tumours,” Nature 2005; 435: 677-681, and cell cytotoxicity EC50 values were assessed using CellTiter Glo (Promega, Madison Wis.).

Reh = experiment: as above; assay type: cell-based, human
Procedure: as §1, §2

Jurkat = experiment: as above; assay type: cell-based, human
Procedure: as §1, §2

HL60 = experiment: as above; assay type: cell-based, human
Procedure: as §1, §2

MEG-01 = experiment: as above; assay type: cell-based, human
Procedure: as §1, §2

Rs11380 = experiment: as above; assay type: cell-based, human
Procedure: as §1, §2

SuPB15 = experiment: as above; assay type: cell-based, human
Procedure: as §1, §2

U-937 = experiment: as above; assay type: cell-based, human
Procedure: as §1, §2

CCRF-CEM = experiment: as above; assay type: cell-based, human
Procedure: as §1, §2

Pfeiffer = experiment: as above; assay type: cell-based, human
Procedure: as §1, §2

RS4; 11 = experiment: as above; assay type: cell-based, human
Procedure: as §1, §2

RPMI 8226 = experiment: as above; assay type: cell-based, human
Procedure: as §1, §2

K562 = experiment: as above; assay type: cell-based, human
Procedure: as §1, §2

I9.2 = experiment: as above; assay type: cell-based, human
Procedure: as §1, §2

DOHH2 = experiment: as above; assay type: cell-based, human; conditions: DOHH-2
Procedure: as §1, §2

CEM/C1 = experiment: as above; assay type: cell-based, human
Procedure: as §1, §2

KG1a = experiment: as above; assay type: cell-based, human; conditions: KG-1a
Procedure: as §1, §2

Raji = experiment: as above; assay type: cell-based, human
Procedure: as §1, §2

SuDHL-4 = experiment: as above; assay type: cell-based, human
Procedure: as §1, §2

WSU-NHL = experiment: as above; assay type: cell-based, human
Procedure: as §1, §2

MV-4-11 = experiment: as above; assay type: cell-based, human
Procedure: as §1, §2

MOLT-4 = experiment: as above; assay type: cell-based, human
Procedure: as §1, §2

Rec-1 [1] = experiment: cell cytotoxicity EC50, CellTiter Glo, Mantle Cell Lymphoma cell line, Rec-1 sub-clone batch listed second; assay type: cell-based, human
Procedure: as §1, §2

Rec-1 [2] = experiment: cell cytotoxicity EC50, CellTiter Glo, Mantle Cell Lymphoma cell line, Rec-1 sub-clone batch listed first; assay type: cell-based, human
Procedure: as §1, §2

solid tumors = conditions: in vivo; cited from earlier work
[3] = tested on: diverse panel of human cancer cell lines; conditions: cited from earlier work
[4] = 10% human serum, 48 hours, read-out: EC50
[5] = Homo sapiens, read-out: Response Designation
[6] = Homo sapiens, Rec1, read-out: Response Designation
[7] = Rec1, 10% human serum, 48 hours, read-out: EC50

CC1(C)CCC(c2ccc(Cl)cc2)=C(CN2CCN(c3ccc(C(=O)NS(=O)(=O)c4ccc(N[C@H](CCN5CCOCC5)CSc5ccccc5)c(S(=O)(=O)C(F)(F)F)c4)cc3)CC2)C1 [ABT-263, N-(4-(4-((2-(4-chlorophenyl)-5,5-dimethyl-1-cyclohex-1-en-1-yl)methyl)piperazin-1-yl)benzoyl)-4-(((1R)-3-(morpholin-4-yl)-1-((phenylsulfanyl)methyl)propyl)amino)-3-((trifluoromethyl)sulfonyl)benzenesulfonamide]
EC50 (CCRF-HSB2; CCRF-HSB-2, 10% human serum, 48 hours, read-out: EC50): 1150 nM
EC50 (CCRF-HSB2; Homo sapiens, CCRF-HSB-2, read-out: Response Designation): ≤ 4800 nM
EC50 (Reh; [4]): 434 nM
EC50 (Reh; [5]): ≤ 4800 nM
EC50 (Jurkat; [4]): 3.35 µM
EC50 (Jurkat; [5]): ≤ 4.8 µM
EC50 (HL60; HL-60, 10% human serum, 48 hours, read-out: EC50): 4.84 µM
EC50 (HL60; Homo sapiens, HL-60, read-out: Response Designation): ≤ 4.8 µM
EC50 (MEG-01; Homo sapiens, MEG-01, read-out: Response Designation): > 4.8 µM
EC50 (MEG-01; Meg-01, 10% human serum, 48 hours, read-out: EC50): 6.04 µM
EC50 (Rs11380; [4]): 145 nM
EC50 (Rs11380; [5]): ≤ 4800 nM
EC50 (SuPB15; Homo sapiens, SUP-B15, read-out: Response Designation): ≤ 4800 nM
EC50 (SuPB15; SUP-B15, 10% human serum, 48 hours, read-out: EC50): 260 nM
EC50 (U-937; [4]): 33.9 µM
EC50 (U-937; [5]): > 4.8 µM
EC50 (CCRF-CEM; [4]): 765 nM
EC50 (CCRF-CEM; [5]): ≤ 4800 nM
EC50 (Pfeiffer; [4]): 8.81 µM
EC50 (Pfeiffer; [5]): > 4.8 µM
EC50 (RS4; 11; Homo sapiens, RS4;11, read-out: Response Designation): ≤ 4800 nM
EC50 (RS4; 11; RS4, 11, 10% human serum, 48 hours, read-out: EC50): 95 nM
EC50 (RPMI 8226; [4]): 1500 nM
EC50 (RPMI 8226; [5]): ≤ 4800 nM
EC50 (K562; [4]): 12.8 µM
EC50 (K562; [5]): > 4.8 µM
EC50 (I9.2; [4]): 1800 nM
EC50 (I9.2; [5]): ≤ 4800 nM
EC50 (DOHH2; DoHH2, 10% human serum, 48 hours, read-out: EC50): 322 nM
EC50 (DOHH2; Homo sapiens, DOHH2, read-out: Response Designation): ≤ 4800 nM
EC50 (CEM/C1; [4]): 63 nM
EC50 (CEM/C1; [5]): ≤ 4800 nM
EC50 (KG1a; [5]): ≤ 4800 nM
EC50 (KG1a; [4]): 243 nM
EC50 (Raji; [4]): 23.7 µM
EC50 (Raji; [5]): > 4.8 µM
EC50 (SuDHL-4; Homo sapiens, SU-DHL-4, read-out: Response Designation): ≤ 4800 nM
EC50 (SuDHL-4; SU-DHL-4, 10% human serum, 48 hours, read-out: EC50): 1040 nM
EC50 (WSU-NHL; [4]): 3.55 µM
EC50 (WSU-NHL; [5]): ≤ 4.8 µM
EC50 (MV-4-11; Homo sapiens, MV4-11, read-out: Response Designation): ≤ 4800 nM
EC50 (MV-4-11; MV4-11, 10% human serum, 48 hours, read-out: EC50): 28 nM
EC50 (MOLT-4; Homo sapiens, MOLT-4, read-out: Response Designation): ≤ 4800 nM
EC50 (MOLT-4; Molt-4, 10% human serum, 48 hours, read-out: EC50): 385 nM
EC50 (Rec-1 [1]; [6]): ≤ 4800 nM
EC50 (Rec-1 [1]; [7]): 698 nM
EC50 (Rec-1 [2]; [6]): ≤ 4800 nM
EC50 (Rec-1 [2]; [7]): 34 nM

CN(C)CC[C@H](CSc1ccccc1)Nc1ccc(S(=O)(=O)NC(=O)c2ccc(N3CCN(Cc4ccccc4-c4ccc(Cl)cc4)CC3)cc2)cc1[N+](=O)[O-] [ABT-737, N-(4-(4-((4′-chloro(1,1′-biphenyl)-2-yl)methyl)piperazin-1-yl)benzoyl)-4-(((1R)-3-(dimethylamino)-1-((phenylsulfanyl)methyl)propyl)amino)-3-nitrobenzenesulfonamide]
effect on solid tumors (solid tumors): induce regression of solid tumors
potency across a diverse panel of human cancer cell lines [3]: selective potency against SCLC and lymphoma cell lines
